Results: ChEMBL document CHEMBL4387717, “Structure guided drug design to develop kallikrein 5 inhibitors to treat Netherton syndrome” (Bioorg Med Chem Lett, 2019)
Converted amounts (≈) assume the structure as drawn.

How the values were obtained:
Keratinocyte [1] = assay: Induction of irritation in human epidermal keratinocytes assessed as effect on IL1alpha levels over 24 hrs; assay type: cell-based
[2] = Half life in pH 6 buffer at 0.05 mg/ml under H2O2-induced oxidative condition over 24 hrs; assay type: physicochemical; conditions: buffer with H2O2, pH 6
Kallikrein-8 = target: T1, Kallikrein-8 (Homo sapiens, UniProt O60259); assay: Inhibition of recombinant C-terminal 10-His tagged human KLK8 (Gln29 to Gly260 residues) expressed in mouse NS0 cells using BOC-VPR-AMC as substrate after 40 mins by fluorescence intensity assay
T1 sequence (O60259 whole entry): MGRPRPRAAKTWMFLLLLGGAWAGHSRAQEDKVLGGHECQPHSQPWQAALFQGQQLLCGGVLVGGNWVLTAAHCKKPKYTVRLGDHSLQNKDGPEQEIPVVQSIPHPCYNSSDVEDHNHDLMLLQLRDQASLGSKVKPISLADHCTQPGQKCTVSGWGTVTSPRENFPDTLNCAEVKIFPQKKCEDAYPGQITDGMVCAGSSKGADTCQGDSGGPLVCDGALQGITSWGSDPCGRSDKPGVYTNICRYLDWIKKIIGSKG

Homo sapiens [3] = species on record: Homo sapiens; assay: Selectivity index, ratio of compound effect for inhibition of recombinant C-terminal 6-His tagged human KLKB1 (Gly20 to Ala638 residues) expressed in mouse NS0 cells to compound effect for inhibition of recombinant 6His-Q-FLAG tagged human KLK5 expressed in baculovirus infected insect Sf9 cells
Homo sapiens [4] = species on record: Homo sapiens; assay: Selectivity index, ratio of compound effect for inhibition of recombinant human N-terminal met-His6-tagged matriptase catalytic domain (Gly596 to Val855 residues) expressed in Escherichia coli to compound effect for inhibition of recombinant 6His-Q-FLAG tagged human KLK5 expressed in baculovirus infected insect Sf9 cells
[5] = Solubility of the compound in pH 6 Britton-Robinson buffer at 24 hrs; assay type: physicochemical; conditions: Britton-Robinson buffer, pH 6
Keratinocyte [6] = assay: Induction of irritation in human epidermal keratinocytes assessed as effect on cell viability over 24 hrs; assay type: cell-based
Kallikrein-5 = target: T2, Kallikrein-5 (Homo sapiens, UniProt Q9Y337); assay: Inhibition of recombinant 6His-Q-FLAG tagged human KLK5 expressed in baculovirus infected Sf9 insect cells using (Tos-Gly-Pro-Arg)2[R110].2TFA as substrate measured at 30 secs interval for 5 mins by fluorescence intensity assay; conditions: read-out: pIC50 (converted)
T2 sequence (Q9Y337 whole entry): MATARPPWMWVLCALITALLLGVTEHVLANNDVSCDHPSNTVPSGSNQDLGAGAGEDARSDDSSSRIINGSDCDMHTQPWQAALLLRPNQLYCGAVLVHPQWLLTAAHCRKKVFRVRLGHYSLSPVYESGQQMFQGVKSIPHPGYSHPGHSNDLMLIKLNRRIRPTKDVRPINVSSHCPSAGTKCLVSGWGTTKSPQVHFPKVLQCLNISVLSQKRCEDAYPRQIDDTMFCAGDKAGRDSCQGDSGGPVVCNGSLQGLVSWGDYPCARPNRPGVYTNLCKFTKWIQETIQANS

Homo sapiens [7] = species on record: Homo sapiens; assay: Selectivity index, ratio of compound effect for inhibition of recombinant C-terminal 10-His tagged human KLK14 (Gln19 to Met248 residues) expressed in mouse NS0 cells to compound effect for inhibition of recombinant 6His-Q-FLAG tagged human KLK5 expressed in baculovirus infected insect Sf9 cells
Neutrophil elastase = target: T3, Neutrophil elastase (Homo sapiens, UniProt P08246); assay: Inhibition of human neutrophil elastase using MeOSuc-AAPV-AMC as substrate after 40 mins by fluorescence intensity assay
T3 sequence (P08246 whole entry): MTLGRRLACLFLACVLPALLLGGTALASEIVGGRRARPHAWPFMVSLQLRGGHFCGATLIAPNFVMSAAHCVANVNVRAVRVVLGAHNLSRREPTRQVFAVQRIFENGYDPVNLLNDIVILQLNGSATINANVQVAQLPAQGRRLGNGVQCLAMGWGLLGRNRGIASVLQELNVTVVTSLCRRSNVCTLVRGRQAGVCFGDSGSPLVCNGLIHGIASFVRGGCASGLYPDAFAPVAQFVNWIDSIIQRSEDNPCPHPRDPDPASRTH

Homo sapiens [8] = species on record: Homo sapiens; assay: Selectivity index, ratio of compound effect for inhibition of recombinant C-terminal 10-His tagged human urokinase (Met1 to Leu431 residues) expressed in mouse NS0 cells to compound effect for inhibition of recombinant 6His-Q-FLAG tagged human KLK5 expressed in baculovirus infected insect Sf9 cells

- half-life at 0.05 mg/ml [2]: 27.8 h
- IC50 (Kallikrein-8): 0.794 µM
- solubility at 24 h [5]: 290 µg/mL (≈ 728 µM)
- IC50 (Kallikrein-5): 0.0794 µM
- IC50 (Neutrophil elastase): > 100 µM
Compound: N=C(N)c1ccc(NCc2nc(-c3ccccc3)c[nH]2)cc1OCc1cccnc1
- Activity (Keratinocyte [1]): Non-Toxic
- Selectivity Index (Homo sapiens [3]): > 100
- Selectivity Index (Homo sapiens [4]): > 100
- Activity (Keratinocyte [6]): Non-Toxic
- Selectivity Index (Homo sapiens [7]): > 100
- Selectivity Index (Homo sapiens [8]): > 100
